Test systems include CAKI-1 renal; COLO 205 colon; EKVX NSCLC; HCC-2998 colon; KM12 colon; NCI-H226 lung; NCI/ADR-RES ovarian; TK-10 renal; UACC-62 melanoma.
Common to all, as to assay: growth of human tumour cells (NCI), 48 h

“And” between values parts separate entries of the source, which are not always exact repeats. Equal entries are not always repeated.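 These data come from cells grown in 96-well plates and exposed to compound for 48 hours at five concentrations. GI50 marks 50% less growth. TGI marks complete inhibition of growth.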 Where only a bound is given, the exact number is not on record here.

As for `CCc1nc(N)nc(N)c1-c1ccc(NCCN)c([N+](=O)[O-])c1`, the TGI with CAKI-1 renal was greater than 100 µM; in the experiment with COLO 205 colon, 40.4 µM; in the experiment on EKVX NSCLC, greater than 100 µM; in the experiment with HCC-2998 colon, 50.7 µM; with KM12 colon, greater than 100 µM; with NCI-H226 lung, greater than 100 µM. In addition, the TGI in the experiment with NCI/ADR-RES ovarian, in the experiment with TK-10 renal and with UACC-62 melanoma was greater than 100 µM in each case.
For `COC(=O)[C@@]12C(=O)C=CC(=O)[C@@H]1C1C(=CC2COC(C)=O)O[C@@H]2OC3(CCCCC3)O[C@H]12` (stereo partly drawn), the TGI was found to be 25.4 µM in the experiment with CAKI-1 renal; 18.4 µM with COLO 205 colon; 32.8 µM with EKVX NSCLC; 30.4 µM in the experiment with HCC-2998 colon; 26.5 µM in the experiment with KM12 colon; 32.4 µM with NCI-H226 lung. The TGI in the experiment with NCI/ADR-RES ovarian was 28.7 µM; in the experiment on TK-10 renal it was 20.6 µM; in the experiment with UACC-62 melanoma, 25.9 µM.
For the compound `COc1cccc(C2c3cc4c(cc3OC(C)(N3CCCC3)C2C)OCO4)c1OC` (stereo not drawn), the TGI is 47.4 µM in the experiment with CAKI-1 renal; 24.6 µM with COLO 205 colon; 78.2 µM in the experiment with EKVX NSCLC; 53.2 µM with HCC-2998 colon; 23 µM in the experiment on KM12 colon; 58.5 µM with NCI-H226 lung. In addition, the results for the TGI in the experiment on NCI/ADR-RES ovarian, in the experiment with TK-10 renal and with UACC-62 melanoma were 76.8 µM, 89.1 µM and 51.5 µM, respectively.
Turning to `CCCCC[C@H](O)/C=C/[C@@H]1[C@@H](C/C=C\CCCC(=O)O)[C@@H](O)C[C@H]1O`, the GI50 in the experiment on CAKI-1 renal, with COLO 205 colon, in the experiment with EKVX NSCLC, in the experiment on HCC-2998 colon, in the experiment with KM12 colon and in the experiment with NCI-H226 lung was greater than 100 µM each time. The GI50 in the experiment on NCI/ADR-RES ovarian, in the experiment with TK-10 renal and in the experiment on UACC-62 melanoma was greater than 100 µM each time. For the same compound, the TGI in the experiment with CAKI-1 renal, in the experiment with COLO 205 colon, in the experiment on EKVX NSCLC, in the experiment on HCC-2998 colon, with KM12 colon and in the experiment with NCI-H226 lung was greater than 100 µM each time. The TGI in the experiment on NCI/ADR-RES ovarian, in the experiment with TK-10 renal and in the experiment on UACC-62 melanoma was greater than 100 µM throughout.
Regarding `COc1ccc2oc(=O)cc(C(c3ccc[nH]3)c3ccc[nH]3)c2c1`, the TGI with CAKI-1 renal stood at 13.1 µM; in the experiment on COLO 205 colon, 0.549 µM; in the experiment with EKVX NSCLC, 21.5 µM; with HCC-2998 colon, 2.15 µM; with KM12 colon, 11.3 µM; with NCI-H226 lung, 24.4 µM. Further, the TGI in the experiment with NCI/ADR-RES ovarian was determined as 5.91 µM; with TK-10 renal, 15.6 µM; with UACC-62 melanoma it was 14 µM. Moreover, the GI50 in the experiment with COLO 205 colon is 0.221 µM; in the experiment on EKVX NSCLC, 0.278 µM; in the experiment on HCC-2998 colon, 0.0973 µM; in the experiment with KM12 colon, 0.104 µM; with NCI-H226 lung, 0.146 µM; with NCI/ADR-RES ovarian, 0.0651 µM. In addition, the results for the GI50 in the experiment on TK-10 renal and in the experiment on UACC-62 melanoma were 0.155 µM and 0.152 µM, respectively.
Take `CC1(C)N=C(N)N=C(N)N1c1cccc(CCCCc2cccc(S(=O)(=O)F)c2)c1`: the GI50 with CAKI-1 renal was 20.3 µM; in the experiment with COLO 205 colon it was 1.53 µM; with EKVX NSCLC, 19.2 µM; in the experiment on HCC-2998 colon, 3.17 µM; with KM12 colon, 0.474 µM; with NCI-H226 lung it was 8.93 µM. The GI50 with NCI/ADR-RES ovarian was greater than 79.2 µM; in the experiment with TK-10 renal it was 4.85 µM; in the experiment with UACC-62 melanoma, 0.281 µM. Moreover, the TGI in the experiment with CAKI-1 renal is greater than 100 µM; in the experiment on COLO 205 colon, greater than 100 µM; with EKVX NSCLC it was greater than 100 µM; in the experiment on HCC-2998 colon it was greater than 56.3 µM; with KM12 colon, 14.2 µM; in the experiment on NCI-H226 lung, greater than 100 µM. The TGI in the experiment on NCI/ADR-RES ovarian is greater than 100 µM; with TK-10 renal it was greater than 100 µM; with UACC-62 melanoma it was 18 µM.
On to `COc1cc(C2c3[nH]c4ccccc4c3C[C@H]3COC(=O)N23)cc(OC)c1OC` (stereo partly drawn), for which the GI50 in the experiment on CAKI-1 renal is less than 0.01 µM; in the experiment on COLO 205 colon it was less than 0.01 µM; in the experiment with HCC-2998 colon, less than 0.01 µM; in the experiment on NCI/ADR-RES ovarian it was 0.0586 µM and < 0.01 µM; with TK-10 renal it was less than 0.01 µM; in the experiment on UACC-62 melanoma it was less than 0.01 µM. In addition, the TGI is greater than 100 µM with CAKI-1 renal; 0.287 µM and 0.0434 µM with COLO 205 colon; greater than 100 µM in the experiment with EKVX NSCLC; 1.68 µM in the experiment with KM12 colon; 0.902 µM with NCI-H226 lung; 0.265 µM and 0.0902 µM with NCI/ADR-RES ovarian. In addition, the TGI in the experiment with TK-10 renal and in the experiment on UACC-62 melanoma was greater than 100 µM throughout.
Regarding `O=[N+]([O-])c1ccc(S(=O)(=O)Cc2ccccc2)c([N+](=O)[O-])c1`, the TGI in the experiment on CAKI-1 renal was found to be 3.2 µM; in the experiment with COLO 205 colon, 3.26 µM; in the experiment on EKVX NSCLC, 4.36 µM; in the experiment with HCC-2998 colon, 19.7 µM; in the experiment with KM12 colon, 23.7 µM; in the experiment on NCI-H226 lung it was 43.3 µM. For the same compound, the TGI is greater than 51.8 µM in the experiment on NCI/ADR-RES ovarian, 3.28 µM with TK-10 renal and 5.22 µM in the experiment with UACC-62 melanoma.
Regarding `NC(=O)NNCc1ccccc1`, the TGI with CAKI-1 renal, with COLO 205 colon, with EKVX NSCLC, with HCC-2998 colon, in the experiment with KM12 colon and in the experiment on NCI-H226 lung was greater than 100 µM throughout. Moreover, the TGI in the experiment on NCI/ADR-RES ovarian, in the experiment on TK-10 renal and in the experiment on UACC-62 melanoma was greater than 100 µM throughout.
For `O=C1c2ccccc2-c2c1c1ccccc1c(=O)n2CCCCNCCCn1c2c(c3ccccc3c1=O)C(=O)c1ccccc1-2`, the GI50 with CAKI-1 renal is 0.71 µM; in the experiment with COLO 205 colon, 1.51 µM; with EKVX NSCLC, 0.782 µM; with HCC-2998 colon, 0.698 µM; with KM12 colon, 0.31 µM; with NCI-H226 lung, 0.375 µM. Besides, the figures for the GI50 with NCI/ADR-RES ovarian, with TK-10 renal and with UACC-62 melanoma were 0.582 µM, 0.887 µM and 0.445 µM, respectively. The TGI with CAKI-1 renal was 4.21 µM; in the experiment on COLO 205 colon, 12.7 µM; with EKVX NSCLC it was 1.75 µM; with HCC-2998 colon it was 1.4 µM; in the experiment with KM12 colon, 2.45 µM; in the experiment on NCI-H226 lung, 3.11 µM. For the same compound, the TGI in the experiment with NCI/ADR-RES ovarian was determined as 1.72 µM; in the experiment with TK-10 renal, 4.32 µM; in the experiment with UACC-62 melanoma, 3.22 µM.
In the case of `FC(F)(F)c1nc(N2CCCC2)ncc1-c1nnnn1-c1ccc(Cl)cc1`, the GI50 in the experiment on CAKI-1 renal was 17.5 µM; in the experiment on COLO 205 colon it was 10.7 µM; with EKVX NSCLC, 29 µM; in the experiment with HCC-2998 colon, 26.7 µM; with KM12 colon, 15 µM; in the experiment with NCI-H226 lung, 13.9 µM. Moreover, the GI50 in the experiment on NCI/ADR-RES ovarian was 23 µM; with TK-10 renal it was 15.4 µM; in the experiment on UACC-62 melanoma, 7.49 µM. Also, the TGI in the experiment with CAKI-1 renal is 88.2 µM; in the experiment with COLO 205 colon, 27.5 µM; in the experiment with EKVX NSCLC, greater than 100 µM; in the experiment on HCC-2998 colon, 72.2 µM; with KM12 colon, 48 µM; with NCI-H226 lung, greater than 100 µM. In addition, the figures for the TGI in the experiment with NCI/ADR-RES ovarian, with TK-10 renal and in the experiment on UACC-62 melanoma were 62.2 µM, 75.6 µM and greater than 100 µM, respectively.
As for `COc1ccc(C2CC(c3cc(OC)c(OC)c(OC)c3)=NO2)cc1OCCCCOc1cc2c(cc1OC)C(=O)N1CCC[C@H]1C=N2` (stereo partly drawn), the GI50 with CAKI-1 renal was 3.09 µM; in the experiment with COLO 205 colon, 1.96 µM; in the experiment with EKVX NSCLC it was 3.68 µM; in the experiment with HCC-2998 colon, 1.58 µM; in the experiment with KM12 colon, 1.74 µM; with NCI-H226 lung it was 1.67 µM. For the same compound, the GI50 in the experiment with NCI/ADR-RES ovarian is 6.95 µM; in the experiment with TK-10 renal it was 3.51 µM; with UACC-62 melanoma, 1.52 µM. In addition, the TGI was greater than 100 µM in the experiment on CAKI-1 renal; 4.04 µM in the experiment on COLO 205 colon; 25 µM with EKVX NSCLC; 3.04 µM in the experiment with HCC-2998 colon; 3.32 µM with KM12 colon; 3.44 µM in the experiment on NCI-H226 lung. Moreover, the TGI amounted to 37.5 µM in the experiment with NCI/ADR-RES ovarian, 9.41 µM in the experiment with TK-10 renal and 2.85 µM in the experiment on UACC-62 melanoma.
As for `F`, the GI50 with CAKI-1 renal was 3220 µM; with COLO 205 colon it was 2830 µM; in the experiment with EKVX NSCLC, 2100 µM; with HCC-2998 colon, 2610 µM; in the experiment on KM12 colon, 2610 µM; with NCI-H226 lung, greater than 6870 µM. For the same compound, the GI50 in the experiment with NCI/ADR-RES ovarian was 2530 µM; in the experiment on TK-10 renal, 3400 µM; in the experiment with UACC-62 melanoma, 1550 µM. Further, the TGI in the experiment with CAKI-1 renal was greater than 6870 µM; with COLO 205 colon, greater than 6870 µM; with EKVX NSCLC it was 5220 µM; in the experiment on HCC-2998 colon, 6190 µM; with KM12 colon, greater than 6870 µM; in the experiment with NCI-H226 lung, greater than 6870 µM. Also, the TGI in the experiment with NCI/ADR-RES ovarian was greater than 6870 µM; with TK-10 renal, greater than 6870 µM; in the experiment on UACC-62 melanoma, 3100 µM.
As for `Cc1cc2nc(C(C)C(=O)c3ccc(Cl)cc3)c(=O)[nH]c2cc1C` (stereo not drawn), the TGI is greater than 100 µM in the experiment on CAKI-1 renal; 53.7 µM in the experiment on COLO 205 colon; 64.3 µM with EKVX NSCLC; 33.1 µM in the experiment with HCC-2998 colon; greater than 100 µM in the experiment on KM12 colon; 95.1 µM in the experiment on NCI-H226 lung. In addition, the values for the TGI in the experiment with NCI/ADR-RES ovarian, in the experiment on TK-10 renal and with UACC-62 melanoma were greater than 100 µM, 75.2 µM and greater than 100 µM, respectively.

The record behind these values is PubChem BioAssay (NCI).
